According to US9518038B2, “Condensation product of theanine derivative and carboxylic acid coumarin derivative, its intermediate, preparation method and use thereof” (SHANDONG YINGDONG YINGHAO BIOTECHNOLOGY, INC., priority 2012, dated 2016):
Marks after values point to notes of the source that are not given here.

Assays:
[1] = test system: human oral epidermoid cancer cells KBV200; assay: MTT growth inhibition, KBV200 cells; assay type: cell-based; settings: 72 h after treatment, read-out: Drug concentration (IC50) at which 50% cancer cells survived
Source text: Cell lines and cell culture: human lung cancer cells A549 and H460, human breast cancer cells MCF-7 and MDA-MB-231, human gastric cancer cells BGC-823, human prostate cancer cells PC-3, human chronic leukemia cells K562, human lymphoma cells U937, human liver cancer cells SMMC7721 and HepG2, human colon cancer cells HT29, human pancreatic cancer cells PANC-1 and BxPC3, human cervical cancer Hela cell lines, human brain tumor cells Daoy, human neuroma cells D54 and human oral epidermoid cancer cells KBV200 line with strong drug resistance, mouse melanoma cells B16, and highly metastatic Lewis lung cancer cell lines were purchased from American Type Culture Collection of the U.S. These cells were cultured with DMEM and RPMI-1640 culture solutions separately.
The procedure was as follows:
(1) 0.25% trypsin was used to digest cancer cells in a logarithmic growth phase to prepare a single-cell suspension, the concentration of cells was adjusted to 5×10^4/mL, and the adjusted suspension was inoculated into a 96-well culture plate with 100 μl per well;
(2) The culture plate was transferred into a 37° C. incubator with a saturated humidity and 5% of CO2 and cultured for 24 h; the compounds and the intermediates thereof obtained in embodiments 1-7 and the compound as represented by formula (IIIa) or the positive control anti-cancer drug with the concentration of 1-1000 μM/L were added to enable the final concentration to be 0.1-1500 μM/L. Control wells (only added with 200 μl of cell suspension) and drug-free blank control wells (containing the solvent of 0.01% DMSO) were set, each group included 8 wells, and the plate was placed into the 37° C. incubator with saturated humidity and 5% of CO2 for culturing;
(3) The 96-well plate was taken out at 48 h and 72 h after dosing, the original culture medium was carefully removed by suction, 100 μl of serum-free DMEM culture medium and 10 μl of MTT (5 mg/mL) solution were added in each well. The plate was continuously cultured for another 4 h and then the culture was terminated;
(4) The supernatant in the wells was carefully removed by suction, each well was added with 150 μl of DMSO and shaked at room temperature for 10-15 min to fully dissolve crystals.
(5) Colorimetric analysis: the wavelength was selected as 570 nm, the light absorbance (A value) of each well was determined on the microplate reader and the results were recorded; the experiment was repeated for three times;
(6) the experimental results were calculated according to the following formula: relative survival rate=(A value of each experimental group/A value of cell control group)×100%
Calculation of median-effect concentration (IC50, namely the drug concentration at which the inhibition rate is 50%, also known as half inhibitory concentration):
IC50 of the detected component was calculated by using a regression equation.

[2] = test system: Bcl-2/Bax; assay: Western Blotting, Bcl-2/Bax level; assay type: cell-based; settings: human liver cancer cells, Lewis lung cancer cells and other cancer cell lines and tumor tissues, read-out: Effective concentration (IC50) for inhibition of Bcl-2/Bax
Source text: (§1) Antibodies: primary antibodies of VEGFR, EGFR, c-Met, K-Ras, H-Ras, Akt, NF-κB, Cyclin D1, ER-alpha, Dvl-1, Dvl-2, Dvl-3, MMP-9, MMP2, β-catenin, Bcl-2, Bax, p53, p21, E-cadherin and Caspase3 protein, purchased from American Cell Signaling Technology Company and Santa Cruz Technology Company; and H3 acetylation, H4 acetylation and HDAC (HDAC3, HDAC4 and the like) Antibody Sample Kits, purchased from Cell Signaling Technology Company of the U.S.
(§2) (3) polyacrylamide gel electrophoresis (SDS-PAGE): an equal amount of protein lysate sample was used to separate protein, film transfer, and blocking, treated with appropriate primary antibodies and secondary antibodies in sequence, and the film was washed, then the color was developed with ECL kit, and a blot protein band was detected by exposure of an X-ray film; and a Gel-Pro Analyzer was used for quantitative analysis of gray degree, optical density value of the control group and the drug treatment group in various concentration were respectively compared with that of internal reference, the obtained ratios were respectively compared with the control group, and the protein expression level was semi-quantified.

[3] = test system: HDAC3; assay: HDAC3 enzyme activity in nuclear extracts of human tumor xenografts of treated mice; settings: first value of the pair HDAC3 and HDAC4, SAHA 25 mg/kg
Procedure: (§3) For the detection of the effect of the drugs on enzyme activity of EZH2 and HDAC of in-vivo tumors, the tumors were separately excised after 6 h of medication, total proteins and nucleoproteins were extracted separately to detect and analyze the activity of the enzyme.
(§4) (2) 50 μl of diluted sample solution was added into each reaction well, the plate was sealed with a plate-sealing film and reacted at room temperature for 30 min;
(§5) (3) the plate-sealing film was carefully peeled off, the liquid was removed, dried, 150 μl of washing liquid was added into each well, stood for 30 s, then the liquid was removed, repeated twice, and dried;
(§6) (4) 2 μl of HDAC enzyme or tumor tissue nuclear extracts was respectively uniformly mixed with 28 μl of diluted sample solution, added into the wells, the plate was sealed with the plate-sealing film and reacted at 37° C. for 60 min;
(5) the plate was washed for three times, wherein the operation was the same as that in (3); and a diluted antibody capture working solution was added into each reaction well according to 50 μl/well and reacted on a shaking bed at room temperature for 60 min;
(6) the plate was washed for four times, wherein the operation was the same as that in (3);
(7) a diluted antibody detection working solution was added into each reaction well according to 50 μl/well and reacted at room temperature for 30 min;
(8) the plate was washed for five times, wherein the operation was the same as that in (3);
a color developing agent was added according to 100 μl/well, and performed dark development for 2-10 min;
(9) 50 μl of stop solution was added into each well for stopping the reaction when the color in the well with a standard product turned blue with medium intensity, the color immediately turned yellow from blue after the addition;
(§7) (10) the light absorbance (OD value) of each well was measured in sequence at the wavelength of 450 nm; wherein the measurement should be performed within 15 min after addition of the stop solution; and

[4] = biological target: T1, EZH2 (Mus musculus, UniProt Q61188); assay: EZH2 enzyme activity in protein extracts of LLC tumors of treated mice (EZH2 Assay Kit); settings: LLC tumor grown in vivo; tumors excised 6 h after medication; SAHA 25 mg/kg
T1 construct: the EZH2 enzyme was replaced with tumor protein extracts in each group; from tissue; host or cells: Lewis lung cancer tumours from treated mice
T1 sequence (Q61188 whole entry): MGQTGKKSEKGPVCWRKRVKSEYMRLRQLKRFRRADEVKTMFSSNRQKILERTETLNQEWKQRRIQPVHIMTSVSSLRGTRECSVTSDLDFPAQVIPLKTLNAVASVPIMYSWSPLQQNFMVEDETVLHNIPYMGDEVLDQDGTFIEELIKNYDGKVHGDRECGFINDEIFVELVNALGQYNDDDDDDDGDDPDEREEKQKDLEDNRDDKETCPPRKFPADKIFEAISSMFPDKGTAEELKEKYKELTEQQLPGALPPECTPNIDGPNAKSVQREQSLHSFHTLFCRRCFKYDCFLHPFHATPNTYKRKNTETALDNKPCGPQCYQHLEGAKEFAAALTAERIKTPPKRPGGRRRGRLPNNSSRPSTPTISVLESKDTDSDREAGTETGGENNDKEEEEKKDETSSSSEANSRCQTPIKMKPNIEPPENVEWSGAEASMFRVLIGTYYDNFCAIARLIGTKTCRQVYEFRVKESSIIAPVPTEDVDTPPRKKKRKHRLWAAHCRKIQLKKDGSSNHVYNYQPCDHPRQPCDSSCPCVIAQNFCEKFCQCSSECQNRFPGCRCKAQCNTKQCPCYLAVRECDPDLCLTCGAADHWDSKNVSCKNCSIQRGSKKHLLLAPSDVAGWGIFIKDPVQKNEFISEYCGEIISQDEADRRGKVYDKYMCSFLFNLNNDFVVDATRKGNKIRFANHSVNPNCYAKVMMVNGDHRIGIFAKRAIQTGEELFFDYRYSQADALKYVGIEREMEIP
T1 sequence (Q921E6 whole entry partner): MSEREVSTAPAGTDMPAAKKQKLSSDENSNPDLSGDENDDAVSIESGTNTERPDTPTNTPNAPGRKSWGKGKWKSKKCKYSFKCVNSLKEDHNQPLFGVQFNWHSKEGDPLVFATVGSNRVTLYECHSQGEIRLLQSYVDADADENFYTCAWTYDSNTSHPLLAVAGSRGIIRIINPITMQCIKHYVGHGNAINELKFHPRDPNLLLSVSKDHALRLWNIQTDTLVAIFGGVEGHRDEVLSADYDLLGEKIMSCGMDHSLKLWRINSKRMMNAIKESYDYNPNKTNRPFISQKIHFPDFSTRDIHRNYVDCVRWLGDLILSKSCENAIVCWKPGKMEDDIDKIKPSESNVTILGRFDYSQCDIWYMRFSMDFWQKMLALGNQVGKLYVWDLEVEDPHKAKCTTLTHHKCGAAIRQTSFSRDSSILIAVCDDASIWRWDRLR
T1 sequence (Q80U70 whole entry partner): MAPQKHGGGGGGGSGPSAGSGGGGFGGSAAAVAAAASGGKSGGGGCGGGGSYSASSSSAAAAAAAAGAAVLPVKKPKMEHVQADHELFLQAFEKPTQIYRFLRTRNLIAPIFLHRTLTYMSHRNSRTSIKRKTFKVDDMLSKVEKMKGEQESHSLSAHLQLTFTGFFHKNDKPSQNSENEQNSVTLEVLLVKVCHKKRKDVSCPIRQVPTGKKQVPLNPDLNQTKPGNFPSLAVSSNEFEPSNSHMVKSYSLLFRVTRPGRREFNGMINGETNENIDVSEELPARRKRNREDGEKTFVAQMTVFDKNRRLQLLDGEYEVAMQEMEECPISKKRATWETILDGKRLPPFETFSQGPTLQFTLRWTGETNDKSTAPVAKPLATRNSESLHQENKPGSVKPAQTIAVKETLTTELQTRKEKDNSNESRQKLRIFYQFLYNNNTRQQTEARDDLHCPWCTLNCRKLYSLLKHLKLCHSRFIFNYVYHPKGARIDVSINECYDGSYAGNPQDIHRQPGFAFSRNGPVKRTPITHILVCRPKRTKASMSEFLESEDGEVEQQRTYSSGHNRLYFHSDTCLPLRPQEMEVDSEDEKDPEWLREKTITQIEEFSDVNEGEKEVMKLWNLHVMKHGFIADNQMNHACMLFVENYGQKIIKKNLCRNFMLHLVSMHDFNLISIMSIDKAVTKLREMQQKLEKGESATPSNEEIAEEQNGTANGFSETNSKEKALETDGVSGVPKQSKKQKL

[5] = test system: HDAC3; assay: HDAC3 enzyme activity in nuclear extracts of LLC tumors of treated mice; settings: LLC tumor grown in vivo; first value of the pair HDAC3 and HDAC4; SAHA 25 mg/kg
Procedure: as §3, §4, §5, §6
(§8) (5) the plate was washed for three times, wherein the operation was the same as that in (3); and a diluted antibody capture working solution was added into each reaction well according to 50 μl/well and reacted on a shaking bed at room temperature for 60 min; […]
as §7

[6] = test system: HDAC4; assay: HDAC4 enzyme activity in nuclear extracts of LLC tumors of treated mice; settings: LLC tumor grown in vivo; second value of the pair HDAC3 and HDAC4; SAHA 25 mg/kg
Procedure: as §3, §4, §5, §6, §8, §7

[7] = test system: Dvl-2; assay: Western Blotting, Dvl-2 level; assay type: cell-based; settings: human liver cancer cells, Lewis lung cancer cells and other cancer cell lines and tumor tissues, read-out: Effective concentration (IC50) for inhibition of Dvl-2
Source text: as §1, §2

[8] = test system: Dvl-3; assay: Western Blotting, Dvl-3 level; assay type: cell-based; settings: human liver cancer cells, Lewis lung cancer cells and other cancer cell lines and tumor tissues, read-out: Effective concentration (IC50) for inhibition of DVl-3
Source text: as §1, §2

[9] = test system: ER-alpha; assay: Western Blotting, ER-alpha level; assay type: cell-based; settings: human liver cancer cells, Lewis lung cancer cells and other cancer cell lines and tumor tissues, read-out: Effective concentration (IC50) for inhibition of ER-alpha
Source text: as §1, §2

[10] = test system: MMP-9; assay: Western Blotting, MMP9 level; assay type: cell-based; settings: human liver cancer cells, Lewis lung cancer cells and other cancer cell lines and tumor tissues, read-out: Effective concentration (IC50) for inhibition of MMP9
Source text: as §1, §2

[11] = test system: MMP-2; assay: Western Blotting, MMP2 level; assay type: cell-based; settings: human liver cancer cells, Lewis lung cancer cells and other cancer cell lines and tumor tissues, read-out: Effective concentration (IC50) for inhibition of MMP2
Source text: as §1, §2

Row | SMILES | IC50 [1] [µM] | IC50 [2] [µM] | decrease of HDAC3 enzyme activity/inhibition rate ([3]; A549 tumor grown in vivo) [%* and] | decrease of HDAC3 enzyme activity/inhibition rate ([3]; MCF7 tumor grown in vivo) [%* and] | decrease of HDAC3 enzyme activity/inhibition rate ([3]; MDA-MB231 tumor grown in vivo) [%* and] | decrease of HDAC3 enzyme activity/inhibition rate ([3]; SMMC7721 tumor grown in vivo) [%* and] | decrease of EZH2 enzyme activity/inhibition rate [4] | decrease of HDAC3 enzyme activity/inhibition rate [5] [%* and] | decrease of HDAC4 enzyme activity/inhibition rate [6] | IC50 [7] [µM] | IC50 [8] [µM] | IC50 [9] [µM] | IC50 [10] [µM] | IC50 [11] [µM]
1 | CCNC(=O)CCC(NC(=O)c1cc2cc(F)ccc2oc1=O)C(=O)OCC (stereo in doubt) [Compound Ie, (R)-2-(6-F-2-oxo-2H-benzopyran-3-carboxamido)-5-ethylamino-5-oxo-pentanoic acid ethyl ester] | 210 | < 180 | 70 | 65 | 60 | 63 | – | – | – | – | – | – | – | –
2 | CCNC(=O)CCC(NC(=O)c1cc2cc([N+](=O)[O-])ccc2oc1=O)C(=O)OCC (stereo in doubt) [Compound If, (R)-2-(6-nitro-2-oxo-2H-benzopyran-3-carboxamido)-5-ethylamino-5-oxo-pentanoic acid ethyl ester] | 102 | < 90 | 73 | 67 | 65 | 66 | – | – | – | – | – | – | – | –
3 | CCNC(=O)CC[C@H](N)C(=O)OC [Compound IIa, theanine methyl ester] | 380 | – | – | – | – | – | – | – | – | – | – | – | – | –
4 | CCNC(=O)CC[C@H](N)C(=O)OCC [Compound IIb, theanine ethyl ester] | 300 | – | – | – | – | – | – | – | – | – | – | – | – | –
5 | CCNC(=O)CCC(NC(=O)c1cc2ccccc2oc1=O)C(=O)OC (stereo not shown) [Compound Ia, methyl 5-ethylamino-5-oxo-2-(2-oxo-2H-benzopyran-3-carboxamido)pentanoate] | 240 | < 125 | – | – | – | 60 | 52%(LLC)- | 55 | 52%*(LLC)- | – | – | – | – | –
6 | CCNC(=O)CCC(NC(=O)c1cc2ccccc2oc1=O)C(=O)OCC (stereo not shown) [Compound Ib, ethyl 5-ethylamino-5-oxo-2-(2-oxo-2H-benzopyran-3-carboxamido)pentanoate] | 136 | < 120 | 65 | – | – | 63 | – | – | – | – | – | – | – | –
7 | CCNC(=O)CC[C@@H](NC(=O)c1cc2cc(Cl)ccc2oc1=O)C(=O)OCC [Compound Ic, (R)-2-(6-CI-2-oxo-2H-benzopyran-3-carboxamido)-5-ethylamino-5-oxo-pentanoic acid ethyl ester] | 97 | < 100 | 71 | 60 | 63 | 65 | – | – | – | – | – | – | – | –
8 | CCNC(=O)CC[C@@H](NC(=O)c1cc2cc(Br)ccc2oc1=O)C(=O)OCC [Compound Id, (R)-2-(6-Br-2-oxo-2H-benzopyran-3-carboxamido)-5-ethylamino-5-oxo-pentanoic acid ethyl ester] | 112 | < 100 | 71 | 60 | 63 | 65 | – | – | – | – | – | – | – | –
9 | CCNC(=O)CC[C@@H](NC(=O)c1cc2cc(Cl)cc(Cl)c2oc1=O)C(=O)OCC [Compound Ig, (R)-2-(6,8-dichloro-2-oxo-2H-benzopyran-3-carboxamido)-5-ethylamino-5-oxo-pentanoic ethyl ester] | 84 | < 70 | 61 | 66 | 64 | 62 | – | – | – | < 100 | < 100 | < 100 | < 65 | < 50
10 | CCNC(=O)CC[C@@H](NC(=O)c1cc2cc(Br)cc(Br)c2oc1=O)C(=O)OCC [Compound Ih, (R)-2-(6,8-dibromo-2-oxo-2H-benzopyran-3-carboxamido)-5-ethylamino-5-oxo-pentanoic ethyl ester] | 72 | < 70 | 57 | 64 | 62 | 60 | – | – | – | < 100 | < 100 | < 100 | < 65 | < 50
